Assay results as given in patent publication US12227536B2, “Crystalline forms of an NRTTI compound” (Merck Sharp & Dohme LLC, priority 2018, dated 2025).

What was measured:
[1] = Solubility of EFdA Forms 1, 2 and 4 in acetonitrile as a function of temperature; type: physicochemical; conditions: for Solubility / Solubility Ratio (Form 1/4): acetonitrile; for Relative thermodynamic stability of the phase: from solubility in acetonitrile between 25.0 and 65.0 °C; for Form 1 and Form 4 ΔΔG: calculated
Description: The Gibbs free energy (ΔG) of a phase is the fundamental thermodynamic parameter that determines the relative stability of a polymorphs at a given temperature. The solubility of a particular polymorph is related to the ΔG by the equation ΔG=−RTln (solubility). The polymorph with the lowest solubility is considered to be the thermodynamically stable phase at a given temperature. Table 6 lists the measured solubility for Forms 1, 2 and 4 of EFdA in acetonitrile between 25.0 and 65.0° C. […] The relatively low ΔΔG values for conversion of Form 1 to Form 4 (i.e., the energy gap between Form 1 and Form 4 is small; 0.21-0.35 kJ/mol), combined with the fast crystallization kinetics of Form 1 as compared to Form 4, result in difficulties isolating Form 4 using conventional methods of polymorph screening.

[2] = Critical water activity from solubility in acetonitrile as a function of water content; type: physicochemical; conditions: 25 °C
Description: The thermodynamic parameter for the stability of the monohydrate Form MH and anhydrate Form 4 of EFdA is the critical water activity. Below this water activity, anhydrous Form 4 is thermodynamically preferred. Above this water activity, monohydrate Form MH is thermodynamically preferred. The solubility of EFdA monohydrate Form MH and anhydrate Forms 1 and 4 were determined in acetonitrile as a function of water content at 25.0° C. The critical water activity for the EFdA monohydrate/Form 4 system at 25° C. was determined to be 0.3.

[3] = tested on: lymphoid derived cell lines and peripheral blood mononuclear cells; conditions: in vitro; cited from earlier work
[4] = Crystal form stability in hot melt extrusion (HME) of EFdA/EVA implant product, by XRD; type: physicochemical
Description: Anhydrate crystalline Forms 1, 2, and 4 of EFdA were isolated by hot melt extrusion (HME) processing. Micronized ethylene vinyl acetate (EVA) polymer and monohydrate crystalline Form MH of EFdA were blended with a Turbula T2F mixer at various ratios: 30, 35, 40, 45 and 50 wt % drug. The pre-blend was hot melt extruded with an 18 mm Leistritz twin screw extruder with a 25:1 L/D, throughput of 400 g/hr, temperatures ranging from 100-140° C., feed zone at 40° C., and screw speed at 30 rpm. Two screw configurations were used, both predominately consisting of conveying elements with different mixing sections. The less aggressive screw design contained a mixing section consisting of conveying, kneading elements each 15 mm in length, with twisting angles of 30°, 60°, and 60° (“HME low shear Process A”). The more aggressive screw design included additional mixing segments after the mixing section used in the less aggressive design: conveying, kneading elements each 15 mm in length, with a twisting angle of 90° (“HME high shear Process B”). For both extrusion set-ups, the strands were then air-cooled and pelletized to form micropellets. The pellets were then extruded with a ½″ American Kuhne single screw extruder with temperatures ranging from 110-140° C., feed zone at 25° C., and screw speed at 20-25 rpm to form a 2±0.05 mm diameter filament, and then cut to a length of 40±2 mm. […]

C#C[C@]1(CO)O[C@@H](n2cnc3c(N)nc(F)nc32)C[C@@H]1O [Form 4, 4′-Ethynyl-2-fluoro-2′-deoxyadenosine]
Solubility ([1]; 25.0 °C): 1.87 ± 0.02 mg/g solv. | Solubility ([1]; 35.0 °C): 2.14 ± 0.02 mg/g solv. | Solubility ([1]; 45.0 °C): 3.18 ± 0.01 mg/g solv. | Solubility ([1]; 55.0 °C): 4.24 ± 0.01 mg/g solv. | Solubility ([1]; 65.0 °C): 6.05 ± 0.05 mg/g solv. | Relative thermodynamic stability of the phase [1]: most thermodynamically stable phase | Critical water activity, EFdA monohydrate/Form 4 system [2]: 0.3

C#C[C@]1(CO)O[C@@H](n2cnc3c(N)nc(F)nc32)C[C@@H]1O [Form 2, 4′-Ethynyl-2-fluoro-2′-deoxyadenosine]
Solubility ([1]; 25.0 °C): 2.43 ± 0.01 mg/g solv. | Solubility ([1]; 35.0 °C): 3.20 ± 0.03 mg/g solv. | Solubility ([1]; 45.0 °C): 4.39 ± 0.04 mg/g solv. | Solubility ([1]; 55.0 °C): 5.79 ± 0.09 mg/g solv. | Solubility ([1]; 65.0 °C): 7.72 ± 0.12 mg/g solv. | Relative thermodynamic stability of the phase [1]: least stable phase

C#C[C@]1(CO)O[C@@H](n2cnc3c(N)nc(F)nc32)C[C@@H]1O [Form 1, 4′-Ethynyl-2-fluoro-2′-deoxyadenosine]
Solubility ([1]; 25.0 °C): 2.15 ± 0.02 mg/g solv. | Solubility Ratio (Form 1/4) ([1]; 25.0 °C): 1.15 | Solubility ([1]; 35.0 °C): 2.43 ± 0.01 mg/g solv. | Solubility Ratio (Form 1/4) ([1]; 35.0 °C): 1.13 | Solubility ([1]; 45.0 °C): 3.44 ± 0.02 mg/g solv. | Solubility Ratio (Form 1/4) ([1]; 45.0 °C): 1.08 | Solubility ([1]; 55.0 °C): 4.74 ± 0.02 mg/g solv. | Solubility Ratio (Form 1/4) ([1]; 55.0 °C): 1.12 | Solubility ([1]; 65.0 °C): 6.81 ± 0.03 mg/g solv. | Solubility Ratio (Form 1/4) ([1]; 65.0 °C): 1.13 | ΔΔG for conversion of Form 1 to Form 4 (energy gap) ([1]; between 25.0 and 65.0 °C): 0.0502 to 0.0837 kcal/mol | Form 1 and Form 4 ΔΔG ([1]; 25.0 °C): 0.0837 kcal/mol | Form 1 and Form 4 ΔΔG ([1]; 35.0 °C): 0.0789 kcal/mol | Form 1 and Form 4 ΔΔG ([1]; 45.0 °C): 0.0502 kcal/mol | Form 1 and Form 4 ΔΔG ([1]; 55.0 °C): 0.0717 kcal/mol | Form 1 and Form 4 ΔΔG ([1]; 65.0 °C): 0.0789 kcal/mol

C#C[C@]1(COP(=O)(O)OP(=O)(O)OP(=O)(O)O)O[C@@H](n2cnc3c(N)nc(F)nc32)C[C@@H]1O [EFdA-TP]
Intracellular half-life [3]: exceeds 72 hrs

C#C[C@]1(CO)O[C@@H](n2cnc3c(N)nc(F)nc32)C[C@@H]1O [Form MH, 4′-Ethynyl-2-fluoro-2′-deoxyadenosine]
Crystal form after HME processing ([4]; HME high shear Process B): converted the Form MH phase into anhydrate Form 4 | Crystal form after HME processing ([4]; HME low shear Process A): converted the Form MH phase into anhydrate Form 1 and anhydrate Form 2
